Assay results from ChEMBL document CHEMBL1138235, “Discovery of dibenzo[c,f][2,7]naphthyridines as potent and selective 3-phosphoinositide-dependent kinase-1 inhibitors” (J Med Chem, 2007).

How the values were obtained:
SW-620 = experiment: Growth inhibition of SW620 cells; assay type: functional, cell-based; settings: Homo sapiens
[1] = target: Ribosomal protein S6 kinase beta-1 (Homo sapiens, UniProt P23443); experiment: Inhibition of S6K
MDA-MB-468 = experiment: Growth inhibition of MDA-MB-468 cells; assay type: functional, cell-based; settings: Homo sapiens
[2] = target: Cyclin-dependent kinase 4 (Homo sapiens, UniProt P11802); experiment: Inhibition of CDK4
Sequence of Cyclin-dependent kinase 4 (P11802 whole entry): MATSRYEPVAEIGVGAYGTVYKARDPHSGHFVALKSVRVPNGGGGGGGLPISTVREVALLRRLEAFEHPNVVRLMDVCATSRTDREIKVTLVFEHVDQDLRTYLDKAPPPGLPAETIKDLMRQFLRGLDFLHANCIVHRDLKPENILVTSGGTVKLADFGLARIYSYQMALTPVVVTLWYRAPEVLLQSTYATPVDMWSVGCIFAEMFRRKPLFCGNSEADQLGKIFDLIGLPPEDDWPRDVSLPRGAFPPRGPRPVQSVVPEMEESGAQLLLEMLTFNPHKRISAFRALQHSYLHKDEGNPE

[3] = Growth inhibition of M49-5 cells; assay type: functional, cell-based; settings: Homo sapiens
[4] = target: T1, Serine/threonine-protein kinase Sgk1 (Homo sapiens, UniProt O00141); experiment: Inhibition of SGK1
T1 sequence (O00141 whole entry): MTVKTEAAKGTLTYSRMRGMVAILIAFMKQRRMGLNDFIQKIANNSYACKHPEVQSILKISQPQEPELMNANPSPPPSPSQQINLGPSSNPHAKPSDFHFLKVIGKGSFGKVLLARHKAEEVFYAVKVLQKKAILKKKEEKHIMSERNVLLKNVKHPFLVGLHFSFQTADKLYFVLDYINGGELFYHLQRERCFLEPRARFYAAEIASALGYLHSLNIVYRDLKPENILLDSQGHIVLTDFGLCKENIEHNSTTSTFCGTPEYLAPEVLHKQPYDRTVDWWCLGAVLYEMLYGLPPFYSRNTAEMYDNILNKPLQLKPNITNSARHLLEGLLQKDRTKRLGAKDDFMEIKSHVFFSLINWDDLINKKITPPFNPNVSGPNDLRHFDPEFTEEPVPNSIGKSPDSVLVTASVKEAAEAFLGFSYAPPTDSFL

[5] = Inhibition of MEK; design: species or system Homo sapiens
[6] = Growth inhibition of PC-3mm2 cells; assay type: functional, cell-based; settings: Homo sapiens, PC3MM2
[7] = Inhibition of PKA; design: species or system Homo sapiens
[8] = target: RAC-alpha serine/threonine-protein kinase (Homo sapiens, UniProt P31749); experiment: Inhibition of AKT
Sequence of RAC-alpha serine/threonine-protein kinase (P31749 whole entry): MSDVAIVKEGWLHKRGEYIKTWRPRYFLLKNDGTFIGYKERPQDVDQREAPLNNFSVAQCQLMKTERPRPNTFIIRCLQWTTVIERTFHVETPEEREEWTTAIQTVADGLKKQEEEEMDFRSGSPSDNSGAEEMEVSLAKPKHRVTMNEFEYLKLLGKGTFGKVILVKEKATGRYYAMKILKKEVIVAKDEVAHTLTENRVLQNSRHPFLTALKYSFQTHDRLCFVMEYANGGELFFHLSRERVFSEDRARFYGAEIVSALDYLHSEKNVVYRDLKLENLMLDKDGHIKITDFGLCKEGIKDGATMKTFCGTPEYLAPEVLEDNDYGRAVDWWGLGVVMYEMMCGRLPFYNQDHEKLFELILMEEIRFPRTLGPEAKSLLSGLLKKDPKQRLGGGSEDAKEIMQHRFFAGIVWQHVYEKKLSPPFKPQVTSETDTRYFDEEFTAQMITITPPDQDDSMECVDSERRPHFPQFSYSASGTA

[9] = target: MAP kinase-activated protein kinase 2 (Homo sapiens, UniProt P49137); experiment: Inhibition of MK2
Sequence of MAP kinase-activated protein kinase 2 (P49137 whole entry): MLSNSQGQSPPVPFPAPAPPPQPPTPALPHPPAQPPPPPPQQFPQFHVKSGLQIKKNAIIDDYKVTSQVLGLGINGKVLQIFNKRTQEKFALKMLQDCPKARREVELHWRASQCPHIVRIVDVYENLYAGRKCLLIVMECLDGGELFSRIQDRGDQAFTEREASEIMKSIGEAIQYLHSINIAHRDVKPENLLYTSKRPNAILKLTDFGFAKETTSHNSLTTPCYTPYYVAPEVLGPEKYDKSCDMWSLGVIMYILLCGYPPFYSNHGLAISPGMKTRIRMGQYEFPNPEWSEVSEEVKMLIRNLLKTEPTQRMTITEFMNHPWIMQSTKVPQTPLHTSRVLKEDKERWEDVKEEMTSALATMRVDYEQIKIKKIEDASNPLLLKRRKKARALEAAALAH

[10] = target: Inhibitor of NF-kappa-B kinase (IKK) (Homo sapiens, UniProt O14920+O15111+Q9Y6K9); experiment: Inhibition of IKK; assay type: protein-complex assay
Sequence of Inhibitor of NF-kappa-B kinase (IKK) (O14920 whole entry): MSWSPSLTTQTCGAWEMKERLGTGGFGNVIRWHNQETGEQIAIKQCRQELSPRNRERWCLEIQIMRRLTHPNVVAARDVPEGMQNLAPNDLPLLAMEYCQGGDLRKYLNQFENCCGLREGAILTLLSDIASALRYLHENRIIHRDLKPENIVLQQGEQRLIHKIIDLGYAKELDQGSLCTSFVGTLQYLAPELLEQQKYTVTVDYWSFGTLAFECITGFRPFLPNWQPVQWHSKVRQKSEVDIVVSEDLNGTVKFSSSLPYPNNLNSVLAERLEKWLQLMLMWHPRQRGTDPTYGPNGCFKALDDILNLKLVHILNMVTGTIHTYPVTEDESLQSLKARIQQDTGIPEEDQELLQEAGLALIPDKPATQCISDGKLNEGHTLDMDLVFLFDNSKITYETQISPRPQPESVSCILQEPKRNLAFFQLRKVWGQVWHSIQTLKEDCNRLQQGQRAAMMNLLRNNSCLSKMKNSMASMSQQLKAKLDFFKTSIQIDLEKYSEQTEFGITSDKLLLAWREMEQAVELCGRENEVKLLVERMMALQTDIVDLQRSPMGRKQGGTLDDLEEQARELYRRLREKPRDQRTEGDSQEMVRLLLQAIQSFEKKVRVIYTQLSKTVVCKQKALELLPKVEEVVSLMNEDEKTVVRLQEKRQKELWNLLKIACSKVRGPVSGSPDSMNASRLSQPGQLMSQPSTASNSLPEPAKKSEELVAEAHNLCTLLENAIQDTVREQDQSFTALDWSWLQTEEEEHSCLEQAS
Sequence of Inhibitor of NF-kappa-B kinase (IKK) (O15111 whole entry): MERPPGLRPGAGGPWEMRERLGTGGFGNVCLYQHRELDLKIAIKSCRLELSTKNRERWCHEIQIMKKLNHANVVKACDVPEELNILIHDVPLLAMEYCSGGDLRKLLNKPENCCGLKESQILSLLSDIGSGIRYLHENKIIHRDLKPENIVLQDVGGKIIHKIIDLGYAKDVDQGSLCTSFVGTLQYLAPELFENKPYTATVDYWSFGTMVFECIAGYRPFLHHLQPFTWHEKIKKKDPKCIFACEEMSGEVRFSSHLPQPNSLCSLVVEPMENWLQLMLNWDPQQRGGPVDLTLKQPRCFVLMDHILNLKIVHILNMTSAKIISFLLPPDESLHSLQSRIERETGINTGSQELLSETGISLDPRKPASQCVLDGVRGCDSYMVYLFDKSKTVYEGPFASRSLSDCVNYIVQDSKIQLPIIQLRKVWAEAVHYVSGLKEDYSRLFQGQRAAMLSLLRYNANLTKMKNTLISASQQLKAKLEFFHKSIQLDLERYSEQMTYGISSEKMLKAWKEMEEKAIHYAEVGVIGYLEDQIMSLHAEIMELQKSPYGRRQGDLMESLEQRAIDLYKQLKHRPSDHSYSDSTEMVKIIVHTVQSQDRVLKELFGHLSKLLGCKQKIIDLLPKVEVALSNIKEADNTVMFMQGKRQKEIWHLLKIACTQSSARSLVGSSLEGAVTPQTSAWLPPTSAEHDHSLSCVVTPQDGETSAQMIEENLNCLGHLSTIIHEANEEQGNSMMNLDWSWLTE
Sequence of Inhibitor of NF-kappa-B kinase (IKK) (Q9Y6K9 whole entry): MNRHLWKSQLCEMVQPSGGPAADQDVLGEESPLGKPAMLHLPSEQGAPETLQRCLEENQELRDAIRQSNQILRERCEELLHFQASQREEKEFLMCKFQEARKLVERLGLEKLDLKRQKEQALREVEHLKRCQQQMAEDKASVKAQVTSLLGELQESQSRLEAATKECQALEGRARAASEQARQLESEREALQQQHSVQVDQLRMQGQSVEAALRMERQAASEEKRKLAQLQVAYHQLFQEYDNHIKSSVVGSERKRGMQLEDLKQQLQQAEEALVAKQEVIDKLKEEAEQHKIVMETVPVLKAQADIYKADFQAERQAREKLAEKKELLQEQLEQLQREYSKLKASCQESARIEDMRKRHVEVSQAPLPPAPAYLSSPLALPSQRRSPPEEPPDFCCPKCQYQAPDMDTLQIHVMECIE

[11] = Inhibition of P38; design: species or system Homo sapiens
[12] = Inhibition of TPL2; design: species or system Homo sapiens
[13] = target: Proto-oncogene tyrosine-protein kinase Src (Homo sapiens, UniProt P12931); experiment: Inhibition of Src
Sequence of Proto-oncogene tyrosine-protein kinase Src (P12931 2-536 limits assumed): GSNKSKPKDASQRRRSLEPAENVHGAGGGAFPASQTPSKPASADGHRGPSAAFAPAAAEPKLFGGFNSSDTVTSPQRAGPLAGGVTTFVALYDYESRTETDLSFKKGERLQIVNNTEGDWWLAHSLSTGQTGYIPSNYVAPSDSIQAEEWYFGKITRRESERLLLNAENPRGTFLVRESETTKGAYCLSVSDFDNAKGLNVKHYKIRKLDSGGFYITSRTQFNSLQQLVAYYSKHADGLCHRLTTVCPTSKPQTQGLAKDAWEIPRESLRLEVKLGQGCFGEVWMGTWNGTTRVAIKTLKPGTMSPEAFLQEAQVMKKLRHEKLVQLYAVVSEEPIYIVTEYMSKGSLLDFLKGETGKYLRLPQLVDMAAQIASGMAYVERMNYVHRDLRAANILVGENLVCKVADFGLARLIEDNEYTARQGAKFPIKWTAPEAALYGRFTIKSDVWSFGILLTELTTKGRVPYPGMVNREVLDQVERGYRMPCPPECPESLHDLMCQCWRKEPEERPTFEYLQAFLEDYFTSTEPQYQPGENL

DU-145 = experiment: Growth inhibition of DU145 cells; assay type: functional, cell-based; settings: Homo sapiens
K562 = experiment: Growth inhibition of K562 cells; assay type: functional, cell-based; settings: Homo sapiens
[14] = Inhibition of CAMII; design: species or system Homo sapiens
HCT-116 = experiment: Growth inhibition of HCT116 cells; assay type: functional, cell-based; settings: Homo sapiens
[15] = target: T2, 3-phosphoinositide-dependent protein kinase 1 (Homo sapiens, UniProt O15530); experiment: Inhibition of PDK1
T2 sequence (O15530 whole entry): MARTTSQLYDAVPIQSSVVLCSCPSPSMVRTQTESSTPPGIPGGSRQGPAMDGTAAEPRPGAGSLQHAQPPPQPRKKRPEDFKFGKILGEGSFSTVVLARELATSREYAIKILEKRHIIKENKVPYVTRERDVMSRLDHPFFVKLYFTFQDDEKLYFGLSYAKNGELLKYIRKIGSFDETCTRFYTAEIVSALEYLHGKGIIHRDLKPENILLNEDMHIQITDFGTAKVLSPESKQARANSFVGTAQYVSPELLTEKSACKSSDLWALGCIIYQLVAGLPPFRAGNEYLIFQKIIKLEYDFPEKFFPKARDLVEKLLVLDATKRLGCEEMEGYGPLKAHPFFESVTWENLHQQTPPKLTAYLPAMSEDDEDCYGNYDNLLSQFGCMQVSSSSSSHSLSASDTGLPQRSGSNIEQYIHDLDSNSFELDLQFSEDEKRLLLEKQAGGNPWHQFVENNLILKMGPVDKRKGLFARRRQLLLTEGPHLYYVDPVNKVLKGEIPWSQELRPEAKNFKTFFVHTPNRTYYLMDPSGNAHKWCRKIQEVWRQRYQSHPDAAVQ

Sequence of Ribosomal protein S6 kinase beta-1 (P23443 whole entry): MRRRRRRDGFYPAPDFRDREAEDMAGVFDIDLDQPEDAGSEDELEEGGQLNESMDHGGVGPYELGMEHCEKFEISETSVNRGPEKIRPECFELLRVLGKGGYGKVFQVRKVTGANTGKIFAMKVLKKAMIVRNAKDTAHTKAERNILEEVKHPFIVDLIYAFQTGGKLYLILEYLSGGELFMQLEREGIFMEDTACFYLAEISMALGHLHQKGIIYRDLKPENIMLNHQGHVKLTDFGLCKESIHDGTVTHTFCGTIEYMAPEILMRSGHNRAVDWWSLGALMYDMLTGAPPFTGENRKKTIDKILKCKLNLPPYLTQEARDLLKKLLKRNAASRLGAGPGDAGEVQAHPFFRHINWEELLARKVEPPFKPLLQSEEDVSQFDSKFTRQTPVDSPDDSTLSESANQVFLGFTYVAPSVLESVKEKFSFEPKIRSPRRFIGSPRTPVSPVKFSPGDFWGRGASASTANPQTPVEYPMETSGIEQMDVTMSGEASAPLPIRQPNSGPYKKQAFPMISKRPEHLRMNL

## COc1cc2ncc3c(N)nc4c(C)c(N)ccc4c3c2cc1OC
SW-620
  IC50: 3.9 µM
[1]
  IC50: > 10 µM
MDA-MB-468
  IC50: 1.55 µM
[2]
  IC50: > 10 µM
[3]
  IC50: 0.35 µM
[4]
  IC50: > 10 µM
[5]
  IC50: > 10 µM
[6]
  IC50: 4.3 µM
[7]
  IC50: > 10 µM
[8]
  IC50: > 10 µM
[9]
  IC50: > 10 µM
[10]
  IC50: > 10 µM
[11]
  IC50: > 10 µM
[12]
  IC50: > 10 µM
[13]
  IC50: > 10 µM
DU-145
  IC50: 2.53 µM
K562
  IC50: 0.48 µM
[14]
  IC50: > 10 µM
HCT-116
  IC50: 3.6 µM

## COc1cc2ncc3cnc4ccccc4c3c2cc1OC
[15]
  IC50: 7.45 µM

## COc1cc2ncc3c(N)nc4c(C)c(Cl)ccc4c3c2cc1OC
[15]
  IC50: 2.12 µM

## COc1cc2c(cc1NCCN(C)C)ncc1c(N)nc3c(C)c(N)ccc3c12
[15]
  IC50: 2.49 µM

## COc1cc2c(cc1F)ncc1c(N)nc3c(C)c(N)ccc3c12
[15]
  IC50: 0.58 µM

## COc1cc2c(cc1OCCN1CCOCC1)ncc1c(N)nc3c(C)c(N)ccc3c12
[15]
  IC50: 0.06 µM

## COc1cc2ncc3c(N)nc4c(C)c(O)ccc4c3c2cc1OC
[15]
  IC50: 0.04 µM

## COc1cc2c(cc1OCCCN(C)C)ncc1c(N)nc3c(C)c(N)ccc3c12
[15]
  IC50: 0.2 µM
